Results published in patent publication US20220323412A1, “EXTRACELLULAR VESICLE-FENRETINIDE COMPOSITIONS, EXTRACELLULAR VESICLE-C-KIT INHIBITOR COMPOSITIONS, METHODS OF MAKING AND USES THEREOF” (priority 2020, published 2022).
Values belong to the compound of their own block, whether it stands above or below them.

What was measured:
[1] = cited from earlier work
[2] = tested on: MCF-7 breast cancer cells; test: CellTiter-Glo Luminescent Cell Viability Assay; assay type: cell-based, human
Protocol: EV-fenretinide was packaged in a manner similar to the protocol described in Example 2. EV-fenretinide was dosed onto MCF-7 breast cancer cells using the exemplary protocol below. Cell viability was measured using the Promega CellTiter-Glo® Luminescent Cell Viability Assay—a method of determining the number of viable cells in culture based on quantitation of the ATP present, an indicator of metabolically active cells.
Protocol steps: • 1. MCF-7 cells were cultured in Dulbecco's Modified Eagle's Medium (DMEM) supplemented with 10% exosome-free fetal bovine serum (FBS) supplemented with penicillin-streptomycin-glutamine (PSG; 100 units/mL penicillin, 100 μg/mL streptomycin and 2 mM L-glutamine) for 1-2 passages. • 2. MCF-7 cells were harvested, washed, counted and resuspended in culture medium (DMEM supplemented with 10% exosome-free FBS and PSG) at 5E5 cells/mL. • 3. The MCF-7 cells were seeded at 5E4 cells in a volume of 100 μL/well of culture medium in a white polystyrene 96-well tissue culture plate and incubated for 18-20 hrs at 37° C./5% CO2 humidified incubator. • 4. After 18-20 hrs of incubation, medium was removed from the wells and replaced with culture medium containing test agents. […] The plate was shaken for two minutes and then left to equilibrate for 10 minutes prior to reading the luminescence on a microplate reader (iD3-Molecular Devices).

CD-1 IGS mice = test: Toxicology: serum and blood chemistry, complete blood count; assay type: in vivo, mouse
Protocol: Both arms were dosed via intravenous tail-vein injected at 0.23 mg/kg with a 4 mL/kg dose volume. The EV-fenretinide formulation was stored at −80° C. until injection into mice. Blood was collected at 2, 5, 10, 15, 30, 60, 120, 240, and 960 minutes, three mice were sacrificed at each time point, and tissue was collected at 30, 120 and 960 minutes. Spleen, liver, lung, kidney, brain and heart tissues were collected. Fenretinide amount in blood and tissue was measured via LC MS/MS mass spectrometry. Serum and hematology toxicology measurements were collected from the blood samples. Blood urea nitrogen (BUN), creatinine, and alanine aminotransferase were measured from serum.
Fenretinide-EVs and fenretinide-alone formulations were produced and dosed in the animal model as in Example 6. On the terminal blood draw of each animal, 20 μL of whole blood samples were used to measure complete blood count (CBC) on the Veterinary Hematology Analyzer (Hematrue, Heska).

[3] = CellTiter-Huor Cell Viability Assay; assay type: cell-based; conditions: human, ARPE-19 retinal pigment epithelium cells, read-out: cell viability or growth of untreated control
Protocol: EV-fenretinide was packaged and purified in a manner similar to the protocol described in Example 1. The extracellular vesicles used for packaging fenretinide was isolated from HEK293-F cells. A human retinal pigment epithelium (RPE) cell line, ARPE-19 (ATCC® CRL-2302™), isolated from normal eyes of an adult […], is treated with fenretinide alone or fenretinide-EV to examine the effect on viability of retinal pigment epithelium cells. ARPE-19 cells plated the night before were treated with fenretinide (resuspended in 100% DMSO) or fenretinide-EV (in PBS) at matched concentration of drug substance (active pharmaceutical ingredient (API)) dosed at either low (0.94 μM) or high (15 μM) fenretinide concentration. After 48 hrs at 37° C. in a humidified 5% CO2 incubator, cell viability is measured using CellTiter-Huor™ Cell Viability Assay (Promega) following the manufacturer's instructions to detect viable cells based on cell membrane integrity using a fluorogenic, cell-permeant, peptide substrate (Gly-Phe-AFC) which is cleaved to a fluorescent signal following entry into intact cells. The plate was read on plate reader at 380-400 nm excitation and —505 nm emission for live-cell fluorescence readout.

[4] = Retention and biodistribution of fenretinide in eye after intravitreal injection; assay type: in vivo, brown Norway rat; conditions: 24-hrs after intravitreal 5 μL per eye; 94.8 uM fenretinide-EV or 90.9 uM fenretinide alone
Protocol: Eye biodistribution of fenretinide formulated as 90.9 uM free fenretinide (excipient: 5% Ethanol, 12.5% Solutol-HS 15, 12.5% PEG 300, and 70% PBS) or 94.8 uM fenretinide-EV (in PBS) is administered to each eye of brown Norway rat (6 rats/treatment condition) by intravitreal injection (5 μL per eye). 24-hrs after administration, eyes were enucleated. Individual tissues were collected corresponding to cornea, conjunctiva, lens, vitreous humor, retina, RPE/choroid and sclera and analyzed for fenretinide content. In addition, total fenretinide content in each eye was also determined.

[5] = DrugBank DB05076; cited from earlier work

Structure (SMILES): Cc1nc(Nc2ncc(C(=O)Nc3c(C)cccc3Cl)s2)cc(N2CCN(CCO)CC2)n1 [dasatinib]
solubility in water ([1]; Selleck Chem catalog): insoluble in water

percentage of fenretinide remaining in eyes [4]: 7%
Structure (SMILES): CC1=C(/C=C/C(C)=C/C=C/C(C)=C/C(=O)Nc2ccc(O)cc2)C(C)(C)CCC1 [Fenretinide, N[4-hydroxyphenyl]retinamide]
viability at 40 µM ([2]; Homo sapiens, MCF7, MCF-7, 40 μM fenretinide, 48 hours): ~20% | effect on cell viability over concentration ([2]; MCF-7, 0.625-40 μM, most notable after about 10 μM): dose-dependent cell viability inhibition | decrease in PLT (platelet concentration) versus Charles River general levels (CD-1 IGS mice; 16 hrs after intravenous 0.2288 mg/kg): 5 fold | adverse effects based on serum and blood chemistry results (CD-1 IGS mice; intravenous 0.23 mg/kg): did not exert apparent adverse effects | viability at 48 h, 0.94 μM ([3]; ARPE-19, 0.94 μM fenretinide equivalent): 85.5% | viability at 48 h, 15 μM ([3]; ARPE-19, 15 μM fenretinide equivalent): 31% | solubility limit in water ([1]; water): about 1.71 μg/mL | logP [5]: greater than 6
